Experimental data reported in patent publication US20110160196A1, “FACTOR XA INHIBITORS” (Millennium Pharmaceuticals, Inc., priority 2007, published 2011).

target: T1, human plasma protein factor Xa (Homo sapiens, UniProt P00742); assay: Factor Xa IC50 determination (cleavage of paranitroanilide substrate S-2765); format: biochemical; conditions: factor Xa 1 nM, S-2765 100 μM, Tris buffered saline pH 7.4, read at 405 nm
T1 construct: The human plasma protein factor Xa was purchased; purchased Haematologic Technologies (Essex Junction, Vt.); host or cells: human plasma
T1 sequence (P00742 235-488 limits assumed): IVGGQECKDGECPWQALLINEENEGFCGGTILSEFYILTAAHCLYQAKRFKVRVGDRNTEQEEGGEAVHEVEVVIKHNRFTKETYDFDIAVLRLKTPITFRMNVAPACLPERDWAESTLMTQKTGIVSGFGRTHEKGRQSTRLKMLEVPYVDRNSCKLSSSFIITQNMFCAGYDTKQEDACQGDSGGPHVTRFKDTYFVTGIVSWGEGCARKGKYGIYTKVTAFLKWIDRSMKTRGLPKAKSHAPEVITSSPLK
T1 sequence (P00742 41-179 partner limits assumed): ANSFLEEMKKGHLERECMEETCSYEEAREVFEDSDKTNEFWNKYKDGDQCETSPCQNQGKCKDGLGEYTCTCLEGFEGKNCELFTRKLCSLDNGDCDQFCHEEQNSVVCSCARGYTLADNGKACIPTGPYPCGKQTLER
How it was run: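 Human plasma factor Xa (1 nM) preincubated 5 min at room temperature with inhibitor (0.01 nM–10 μM) in Tris-buffered saline pH 7.4 with 5 mM CaCl2, 0.1% BSA, 5% DMSO. S-2765 added at 100 μM final; pNA release followed at 405 nm for 2 min. IC50 from four-parameter fit of initial velocities.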

IC50, ≤ 100 nM:
O=C(NCc1cn(-c2ccc(-n3ccccc3=O)cc2N2CCC(C(=O)O)CC2)nn1)c1ccc(Cl)s1 [Compound 24, 1-(2-(4-((2-Chlorothiophene-5-carboxamido)methyl)-1H-1,2,3-triazol-1-yl)-5-(2-oxopyridin-1(2H)-yl)phenyl)piperidine-4-carboxylic acid]
O=C(NCc1cn(-c2ccc(-n3ccccc3=O)cc2[N+](=O)[O-])nn1)c1ccc(Cl)s1 [Compound 44, 5-ChIoro-N-((1-(2-nitro-4-(2-oxopyridin-1(2H)-yl)phenyl)-1H-1,2,3-triazol-4-yl)methyl)thiophene-2-carboxamide]
CN(C)CCCOc1cc(-n2ccccc2=O)ccc1-n1cc(CNC(=O)c2ccc(Cl)s2)nn1 [Compound 92, 5-Chloro-N-((1-(2-(3-(dimethylamino)propoxy)-4-(2-oxopyridin-1(2H)-yl)phenyl)-1H-1,2,3-triazol-4-yl)methyl)thiophene-2-carboxamide]
CN(C)C(=O)c1cc(-n2ccccc2=O)ccc1-n1cc(CNC(=O)c2ccc(Cl)s2)nn1 [Compound 103, 5-Chloro-N-((1-(2-(dimethylcarbamoyl)-4-(2-oxopyridin-1(2H)-yl)phenyl)-1H-1,2,3-triazol-4-yl)methyl)thiophene-2-carboxamide]
O=C(NCc1cn(-c2ccc(-n3ccccc3=O)cc2OC[C@@H](O)CO)nn1)c1ccc(Cl)s1 [Compound 79, 5-Chloro-N-((1-(2-((S)-2,3-dihydroxypropoxy)-4-(2-oxopyridin-1(2H)-yl)phenyl)-1H-1,2,3-triazol-4-yl)methyl)thiophene-2-carboxamide]
O=C(NCc1cn(-c2ccc(-n3ccccc3=O)cc2C(=O)NCc2nnn[nH]2)nn1)c1ccc(Cl)s1 [Compound 117, N-((1-(2-(((1H-Tetrazol-5-yl)methyl)carbamoyl)-4-(2-oxopyridin-1(2H)-yl)phenyl)-1H-1,2,3-triazol-4-yl)methyl)-5-chlorothiophene-2-carboxamide]
O=C(NCc1cn(-c2ccc(-n3ccccc3=O)cc2CO)nn1)c1ccc(Cl)s1 [Compound 119, 5-Chloro-N-((1-(2-(hydroxymethyl)-4-(2-oxopyridin-1(2H)-yl)phenyl)-1H-1,2,3-triazol-4-yl)methyl)thiophene-2-carboxamide]
O=C(NCc1cn(-c2ccc(-n3ccccc3=O)cc2OCCN2CCOCC2)nn1)c1ccc(Cl)s1 [Compound 90, 5-Chloro-N-((1-(2-(2-morpholinoethoxy)-4-(2-oxopyridin-1(2H)-yl)phenyl)-1H-1,2,3-triazol-4-yl)methyl)thiophene-2-carboxamide]
NCCNc1cc(-n2ccccc2=O)ccc1-n1cc(CNC(=O)c2ccc(Cl)s2)nn1 [Compound 30, N-((1-(2-(2-Aminoethylamino)-4-(2-oxopyridin-1(2H)-yl)phenyl)-1H-1,2,3-triazol-4-yl)methyl)-5-chlorothiophene-2-carboxamide]
CN(C)CCNC(=O)c1cc(-n2ccccc2=O)ccc1-n1cc(CNC(=O)c2ccc(Cl)s2)nn1 [Compound 109, N-((1-(2-((2-(Dimethylamino)ethyl)carbamoyl)-4-(2-oxopyridin-1(2H)-yl)phenyl)-1H-1,2,3-triazol-4-yl)methyl)-5-chlorothiophene-2-carboxamide]
CNc1cc(-n2ccccc2=O)ccc1-n1cc(CNC(=O)c2ccc(Cl)s2)nn1 [Compound 1, 5-Chloro-N-((1-(2-(methylamino)-4-(2-oxopyridin-1(2H)-yl)phenyl)-1H-1,2,3-triazol-4-yl)methyl)thiophene-2-carboxamide]
CS(=O)(=O)CCOc1cc(-n2ccccc2=O)ccc1-n1cc(CNC(=O)c2ccc(Cl)s2)nn1 [Compound 80, 5-Chloro-N-((1-(2-(2-(methylsulfonyl)ethoxy)-4-(2-oxopyridin-1(2H)-yl)phenyl)-1H-1,2,3-triazol-4-yl)methyl)thiophene-2-carboxamide]
O=C(O)COc1cc(-n2ccccc2=O)ccc1-n1nnc(CNC(=O)c2ccc(Cl)s2)c1I [Compound 152, 2-(2-(4-((5-Chlorothiophene-2-carboxamido)methyl)-5-iodo-1H-1,2,3-triazol-1-yl)-5-(2-oxopyridin-1(2H)-yl)phenoxy)acetic acid]
